Data: patent US10765114B2, “4-amino-6-(pyridyl and 2-substitutedphenyl)-picolinates and 6-amino-2-(pyridyl and 2-substitutedphenyl)-pyrimidine-4-carboxylates and their use as herbicides” (Dow AgroSciences LLC, priority 2013, dated 2020)
Read-outs that look alike come from different tables or passages of the source.

Legend:
[1] = test system: Key Broadleaf Weed and Crop Species; test: Post-Emergent Test II (Table 5); format: in vivo; conditions: post-emergence, 336 h; for pest or weed control at 70 g/ha: application rate 70 (kg ai/ha; footnote: g ai/ha); for pest or weed control at 140 g/ha: application rate 140 (kg ai/ha; footnote: g ai/ha)
Procedure, shortened: (§1)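 Post-emergence greenhouse spray, 1st-2nd true leaf stage; track sprayer, 187 L/ha; acetone/DMSO stock diluted in aqueous acetone/IPA/DMSO with Atplus 411F and Triton X-155; rates 1× to 1/16×; subirrigated; visual injury 0 (none) to 100% (complete kill) at 14 days.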

[2] = test system: Key Grass and Sedge Weeds as well as Grass Crops; test: Post-Emergent Test II (Table 6); format: in vivo; conditions: post-emergence, 336 h, 14 days after application; for pest or weed control at 70 g/ha: 70 g ai/ha; for pest or weed control at 140 g/ha: 140 g ai/ha
Procedure, shortened: as §1

[3] = Abutilon theophrasti, ABUTH: velvetleaf (Abutilon theophrasti), read-out: Visual Growth Reduction (%) 14 Days After Application ABUTH
[4] = Amaranthus retroflexus, AMARE: redroot pigweed (Amaranthus retroflexus), read-out: Visual Growth Reduction (%) 14 Days After Application AMARE
[5] = Brassica napus, BRSSS: oilseed rape, canola (Brassica napus), read-out: Visual Growth Reduction (%) 14 Days After Application BRSSS
[6] = Chenopodium album, CHEAL: lambsquarters (Chenopodium album), read-out: Visual Growth Reduction (%) 14 Days After Application CHEAL
[7] = Euphorbia heterophylla, EPHHL: wild poinsettia (Euphorbia heterophylla), read-out: Visual Growth Reduction (%) 14 Days After Application EPHHL
[8] = Helianthus annuus, HELAN: sunflower (Helianthus annuus), read-out: Visual Growth Reduction (%) 14 Days After Application HELAN
[9] = Viola tricolor, VIOTR: wild pansy (Viola tricolor), read-out: Visual Growth Reduction (%) 14 Days After Application VIOTR
[10] = CYPSS, read-out: Visual Growth Reduction (%) 14 Days After Application CYPSS
[11] = DIGSA: crabgrass (Digitaria sanguinalis), read-out: Visual Growth Reduction (%) 14 Days After Application DIGSA
[12] = ECHSS, read-out: Visual Growth Reduction (%) 14 Days After Application ECHSS
[13] = ORYSS (crop), read-out: Visual Growth Reduction (%) 14 Days After Application ORYSS
[14] = SORVU: grain sorghum (Sorghum vulgare), read-out: Visual Growth Reduction (%) 14 Days After Application SORVU
[15] = TRZSS (crop), read-out: Visual Growth Reduction (%) 14 Days After Application TRZSS
[16] = ZEAMX: maize, corn (Zea mays), read-out: Visual Growth Reduction (%) 14 Days After Application ZEAMX
[17] = SETFA: giant foxtail (Setaria faberi), read-out: Visual Growth Reduction (%) 14 Days After Application SETFA

| Compound | pest or weed control at 70 g/ha [1, 3] [%] | pest or weed control at 140 g/ha [1, 3] [%] | pest or weed control at 70 g/ha [1, 4] [%] | pest or weed control at 140 g/ha [1, 4] [%] | pest or weed control at 70 g/ha [1, 5] [%] | pest or weed control at 140 g/ha [1, 5] [%] | pest or weed control at 70 g/ha [1, 6] [%] | pest or weed control at 140 g/ha [1, 6] [%] | pest or weed control at 70 g/ha [1, 7] [%] | pest or weed control at 140 g/ha [1, 7] [%] | pest or weed control at 70 g/ha [1, 8] [%] | pest or weed control at 140 g/ha [1, 8] [%] | pest or weed control at 70 g/ha [1, 9] [%] | pest or weed control at 140 g/ha [1, 9] [%] | pest or weed control at 70 g/ha [2, 11] [%] | pest or weed control at 140 g/ha [2, 11] [%] | pest or weed control at 70 g/ha [2, 12] [%] | pest or weed control at 140 g/ha [2, 12] [%] | pest or weed control at 70 g/ha [2, 13] [%] | pest or weed control at 140 g/ha [2, 13] [%] | further results |
| --- | --- | --- | --- | --- | --- | --- | --- | --- | --- | --- | --- | --- | --- | --- | --- | --- | --- | --- | --- | --- | --- |
| COC(=O)c1nc(-c2ccc(C(F)(F)F)c(F)c2C)c(F)c(N)c1Cl [Compound 41] | 75 to 84 | 60 to 74 | 0 to 29 | 0 to 29 | 0 to 29 | 0 to 29 | 45 to 59 | 85 to 94 | 0 to 29 | 45 to 59 | 95 to 100 | 95 to 100 | 0 to 29 | 0 to 29 | 0 to 29 | 0 to 29 | 0 to 29 | 0 to 29 | 0 to 29 | 0 to 29 | pest or weed control at 70 g/ha [2, 10]: 0 to 29%; pest or weed control at 140 g/ha [2, 10]: 95 to 100%; pest or weed control at 70 g/ha [2, 14]: 0 to 29%; pest or weed control at 140 g/ha [2, 14]: 0 to 29%; pest or weed control at 70 g/ha [2, 15]: 0 to 29%; pest or weed control at 140 g/ha [2, 15]: 0 to 29%; pest or weed control at 70 g/ha [2, 16]: 0 to 29%; pest or weed control at 140 g/ha [2, 16]: 45 to 59% |
| COC(=O)c1nc(-c2ccc(Cl)c(F)c2SC)cc(N)c1Cl [Compound 58] | 85 to 94 | 85 to 94 | 85 to 94 | 95 to 100 | 30 to 44 | 60 to 74 | 95 to 100 | 95 to 100 | 0 to 29 | 0 to 29 | 0 to 29 | 75 to 84 | 0 to 29 | 0 to 29 | 0 to 29 | 0 to 29 | 0 to 29 | 0 to 29 | 0 to 29 | 0 to 29 | pest or weed control at 70 g/ha [2, 17]: 0 to 29%; pest or weed control at 140 g/ha [2, 17]: 0 to 29%; pest or weed control at 70 g/ha [2, 14]: 0 to 29%; pest or weed control at 140 g/ha [2, 14]: 0 to 29%; pest or weed control at 70 g/ha [2, 15]: 0 to 29%; pest or weed control at 140 g/ha [2, 15]: 0 to 29%; pest or weed control at 70 g/ha [2, 16]: 0 to 29%; pest or weed control at 140 g/ha [2, 16]: 0 to 29% |
| COC(=O)c1nc(-c2ccc(Cl)c(F)c2OC)cc(N)c1Cl [Compound 20] | 95 to 100 | 95 to 100 | 95 to 100 | 95 to 100 | 95 to 100 | 95 to 100 | 95 to 100 | 95 to 100 | 0 to 29 | 0 to 29 | 85 to 94 | 95 to 100 | 95 to 100 | 95 to 100 | 0 to 29 | 45 to 59 | 60 to 74 | 75 to 84 | 0 to 29 | 0 to 29 | pest or weed control at 70 g/ha [2, 10]: 30 to 44%; pest or weed control at 140 g/ha [2, 10]: 45 to 59%; pest or weed control at 70 g/ha [2, 17]: 30 to 44%; pest or weed control at 140 g/ha [2, 17]: 60 to 74%; pest or weed control at 70 g/ha [2, 14]: 0 to 29%; pest or weed control at 140 g/ha [2, 14]: 30 to 44%; pest or weed control at 70 g/ha [2, 15]: 0 to 29%; pest or weed control at 140 g/ha [2, 15]: 30 to 44%; pest or weed control at 70 g/ha [2, 16]: 85 to 94%; pest or weed control at 140 g/ha [2, 16]: 85 to 94% |
| COC(=O)c1nc(-c2ccc(Cl)c(F)c2C)nc(N)c1Cl [Compound 31] | 85 to 94 | 85 to 94 | 95 to 100 | 95 to 100 | 30 to 44 | 45 to 59 | 95 to 100 | 95 to 100 | 0 to 29 | 0 to 29 | 85 to 94 | 85 to 94 | 0 to 29 | 0 to 29 | 0 to 29 | 0 to 29 | 0 to 29 | 0 to 29 | 0 to 29 | 0 to 29 | pest or weed control at 70 g/ha [2, 10]: 0 to 29%; pest or weed control at 140 g/ha [2, 10]: 0 to 29%; pest or weed control at 70 g/ha [2, 14]: 0 to 29%; pest or weed control at 140 g/ha [2, 14]: 0 to 29%; pest or weed control at 70 g/ha [2, 15]: 0 to 29%; pest or weed control at 140 g/ha [2, 15]: 0 to 29%; pest or weed control at 70 g/ha [2, 16]: 0 to 29%; pest or weed control at 140 g/ha [2, 16]: 0 to 29% |
| Nc1c(F)c(-c2ccc(I)nc2)nc(C(=O)O)c1Cl [Compound 81] | 85 to 94 | 85 to 94 | 95 to 100 | 95 to 100 | 85 to 94 | 85 to 94 | 95 to 100 | 95 to 100 | 95 to 100 | 95 to 100 | 75 to 84 | 85 to 94 | 95 to 100 | 95 to 100 | 75 to 84 | 75 to 84 | 85 to 94 | 85 to 94 | 45 to 59 | 60 to 74 | pest or weed control at 70 g/ha [2, 10]: 95 to 100%; pest or weed control at 140 g/ha [2, 10]: 95 to 100%; pest or weed control at 70 g/ha [2, 17]: 75 to 84%; pest or weed control at 140 g/ha [2, 17]: 85 to 94%; pest or weed control at 70 g/ha [2, 14]: 45 to 59%; pest or weed control at 140 g/ha [2, 14]: 45 to 59%; pest or weed control at 70 g/ha [2, 15]: 60 to 74%; pest or weed control at 140 g/ha [2, 15]: 60 to 74%; pest or weed control at 70 g/ha [2, 16]: 30 to 44%; pest or weed control at 140 g/ha [2, 16]: 45 to 59% |
